The text below walks through data of patent US20250275539A1, “APYRASE INHIBITORS” (Texas Crop Science, Inc., priority 2024, published 2025).

For the test, the system named is apyrase. The experiment in a line: Apyrase inhibition assay (screen for apyrase inhibitors, phosphate release read at 630 nm). It counts as biochemical. Particulars: inhibitor conc at 1 mM (10 μl added), 3 mM ATP, pH 6.5, room temperature 1 hr. On the procedure:
Apyrase inhibitors useful as enhancers of pesticidal activity are assessed using an in vitro assay. The method of Windsor, Bio Techniques 33:1024-1030 (November 2002) was used as follows
• 96 well plates were used for the assay: (Greiner bio-one: REF-655901-96 well, PS, F-bottom, Clear, Non-binding)
• Reaction Buffer: 60 mM Hepes; 3 mM MgCl2, 3 mM CaCl2) and 3 mM ATP (pH 6.5) • Development Buffer A: 2% aqueous ammonium molybdate • Development Buffer B: 11% ascorbic acid in 37.5% TCA in water • Stop buffer C: 2% trisodium citrate in 2% acetic acid solution in water
• Add 100 μl of reaction buffer to each well. • Add 10 μl of DMSO (control) or inhibitor/compound or compounds such as N1915 or orthovanadate to each well. (use inhibitor conc at 1 mM; orthovanadate at 2 mM and N1915 at 1 mM) • Add 10 μl of apyrase (concentration based on optimization—Dilute 1 U/μl enzyme to different concentrations such as 0.1 U, 0.05 U, 0.0025, 0.001 U, 0.0005 U—to find a good range) • Incubate plate at room temperature for 1 hr • Mix development buffer A and B in the ratio of 1:1.5 (just before use). • Add 50 μl of A: B mix in each well (incubate for 2 mins) • Add 50 μl of C in each well • Measure/Read Absorbance of plate @630 nm
Inhibitory data for the apyrase assay described above are provided for selected compounds in Table 3. D is inhibition of 0% to 10%, C is inhibition from 10% to 20%, B is inhibition from 20% to 30%, and A is inhibition above 30%. Blank entries signify compounds that were not tested.
In the case of `CCCc1ccc(S(=O)(=O)Nc2c(C)cccc2C)cc1` [Compound A-92, N-(2,6-dimethylphenyl)-4-propylbenzenesulfonamide], the Inhibition entry is listed as “B (B is inhibition from 20% to 30%)”.

`CCCc1ccc(S(=O)(=O)Nc2ccc3c(c2)CCN3C(C)=O)cc1` [Compound A-115, N-(1-acetylindolin-5-yl)-4-propylbenzenesulfonamide]: the Inhibition entry is given as “A (A is inhibition above 30%)”.

As for `CCCc1ccc(S(=O)(=O)Nc2ccccc2-n2cc(C(=O)OC)nn2)cc1` [Compound A-39, methyl 1-(2-((4-propylphenyl)sulfonamido)phenyl)-1H-1,2,3-triazole-4-carboxylate], the Inhibition entry is listed as “D (D is inhibition of 0% to 10%)”.

As for `COc1ccccc1Oc1ccc(S(=O)(=O)Nc2cccc(C)c2)cc1` [Compound A-100, 4-(2-methoxyphenoxy)-N-(m-tolyl)benzenesulfonamide], the Inhibition result is listed as “D (D is inhibition of 0% to 10%)”.

As to `CCCc1ccc(S(=O)(=O)Nc2ccc(Cn3cccn3)cc2)cc1` [Compound A-111, N-(4-((1H-pyrazol-1-yl)methyl)phenyl)-4-propylbenzenesulfonamide], the Inhibition entry was “D (D is inhibition of 0% to 10%)”.

With `N#Cc1cnc(Cl)c(NS(=O)(=O)c2ccc(-c3ccccc3)cc2)c1` [Compound A-24, N-(2-chloro-5-cyanopyridin-3-yl)-[1,1′-biphenyl]-4-sulfonamide], the Inhibition entry is given as “C (C is inhibition from 10% to 20%)”.

Regarding `CCCc1ccc(S(=O)(=O)Nc2ccc(-c3nnc4n3CCCCC4)cc2)cc1` [Compound A-93, 4-propyl-N-(4-(6,7,8,9-tetrahydro-5H-[1,2,4]triazolo[4,3-a]azepin-3-yl)phenyl) benzenesulfonamide], the Inhibition entry is on record as “D (D is inhibition of 0% to 10%)”.

Take `CCCc1ccc(S(=O)(=O)Nc2cccc(C(N)=O)c2)cc1` [Compound A-84, 3-((4-propylphenyl)sulfonamido) benzamide]: the Inhibition entry was “D (D is inhibition of 0% to 10%)”.

Consider `CCCc1ccc(S(=O)(=O)Nc2ccccc2NS(=O)(=O)c2ccc(F)cc2)cc1` [Compound A-94, 4-fluoro-N-(2-((4-propylphenyl)sulfonamido)phenyl)benzenesulfonamide], for which the Inhibition result was “A (A is inhibition above 30%)”.

Turning to `NC1CCN(S(=O)(=O)c2ccc(-c3ccccc3)cc2)CC1` [Compound A-33, 1-([1,1′-biphenyl]-4-ylsulfonyl)piperidin-4-amine], the Inhibition entry is recorded as “B (B is inhibition from 20% to 30%)”.

`Cc1cccc(NS(=O)(=O)c2ccc(OCC(=O)O)cc2)c1` [Compound A-101, 2-(4-(N-(m-tolyl)sulfamoyl)phenoxy) acedtic acid]: the Inhibition result is given as “B (B is inhibition from 20% to 30%)”.

In the case of `CCCc1ccc(S(=O)(=O)Nc2ccccc2-n2cnnc2C)cc1` [Compound A-22, N-(2-(3-methyl-4H-1,2,4-triazol-4-yl)phenyl)-4-propylbenzenesulfonamide], the Inhibition entry was “D (D is inhibition of 0% to 10%)”.

In the case of `CCCc1ccc(S(=O)(=O)Nc2ccc3c(c2)OCCO3)cc1` [Compound A-54, N-(2,3-dihydrobenzo[b][1,4]dioxin-6-yl)-4-propylbenzenesulfonamide], the Inhibition entry was “D (D is inhibition of 0% to 10%)”.

`O=S(=O)(c1ccc(-c2ccccc2)cc1)N1CCN(C2CCOCC2)CC1` [Compound A-11, 1-([1,1′-biphenyl]-4-ylsulfonyl)-4-(tetrahydro-2H-pyran-4-yl)piperazine]: the Inhibition entry was “D (D is inhibition of 0% to 10%)”.

For `Cc1cccc(NS(=O)(=O)c2ccc(Cl)cc2)c1` [Compound A-56, 4-chloro-N-(m-tolyl)benzenesulfonamide], the Inhibition entry is listed as “C (C is inhibition from 10% to 20%)”.

In the case of `CCCc1ccc(S(=O)(=O)Nc2cc(OC)c(OC)cc2C(=O)OC)cc1` [Compound A-96, methyl 4,5-dimethoxy-2-((4-propylphenyl)sulfonamido) benzoate], the Inhibition result was “C (C is inhibition from 10% to 20%)”.

Take `CCCc1ccc(S(=O)(=O)Nc2ccc(S(=O)(=O)CC)cc2)cc1` [Compound A-32, N-(4-(ethylsulfonyl)phenyl)-4-propylbenzenesulfonamide]: the Inhibition entry is given as “C (C is inhibition from 10% to 20%)”.

As for `Cc1cccc(NS(=O)(=O)c2ccc(C(=O)O)cc2)c1` [Compound A-65, 4-(N-(m-tolyl)sulfamoyl)benzoic acid], the Inhibition entry is “B (B is inhibition from 20% to 30%)”.

For the compound `CCCc1ccc(S(=O)(=O)Nc2ccccc2C(=O)OC)cc1` [Compound A-53, methyl 2-((4-propylphenyl)sulfonamido) benzoate], the Inhibition result is “C (C is inhibition from 10% to 20%)”.

As to `CCCc1ccc(S(=O)(=O)Nc2cc(C)ccc2OC)cc1` [Compound A-88, N-(2-methoxy-5-methylphenyl)-4-propylbenzenesulfonamide], the Inhibition entry is on record as “D (D is inhibition of 0% to 10%)”.

On to `Cc1cccc(NS(=O)(=O)c2ccc(C(N)=O)cc2)c1` [Compound A-18, 4-(N-(m-tolyl)sulfamoyl)benzamide], for which the Inhibition entry is “C (C is inhibition from 10% to 20%)”.

Regarding `CCCc1ccc(S(=O)(=O)Nc2cc(Cl)ccc2-n2cncn2)cc1` [Compound A-122, N-(5-chloro-2-(1H-1,2,4-triazol-1-yl)phenyl)-4-propylbenzenesulfonamide], the Inhibition result was “C (C is inhibition from 10% to 20%)”.

With `CCCc1ccc(S(=O)(=O)Nc2cc(Cl)c(OC)cc2OC)cc1` [Compound A-49, N-(5-chloro-2,4-dimethoxyphenyl)-4-propylbenzenesulfonamide], the Inhibition entry was “D (D is inhibition of 0% to 10%)”.

With `CCCc1ccc(S(=O)(=O)Nc2ccccc2Cc2ccccc2)cc1` [Compound A-91, N-(2-benzylphenyl)-4-propylbenzenesulfonamide], the Inhibition result was “B (B is inhibition from 20% to 30%)”.

As for `CCCc1ccc(S(=O)(=O)Nc2ccccc2C(N)=O)cc1` [Compound A-86, 2-((4-propylphenyl)sulfonamido) benzamide], the Inhibition entry was “D (D is inhibition of 0% to 10%)”.

For the compound `Cc1cccc(NS(=O)(=O)c2ccc(OC(F)(F)F)cc2)c1` [Compound A-63, N-(m-tolyl)-4-(trifluoromethoxy)benzenesul-fonamide], the Inhibition entry is “C (C is inhibition from 10% to 20%)”.

On to `CCCCc1ccc(NS(=O)(=O)c2ccc(CCC)cc2)cc1` [Compound A-83, N-(4-butylphenyl)-4-propylbenzenesulfonamide], for which the Inhibition entry is given as “B (B is inhibition from 20% to 30%)”.

As for `CCCc1ccc(S(=O)(=O)Nc2c(F)cccc2F)cc1` [Compound A-87, N-(2,6-difluorophenyl)-4-propylbenzenesulfonamide], the Inhibition result is reported as “C (C is inhibition from 10% to 20%)”.

Regarding `O=S(=O)(c1ccc(-c2ccccc2)cc1)N1CCCSCC1` [Compound A-106, 4-([1,1′-biphenyl]-4-ylsulfonyl)-1,4-thiazepane], the Inhibition result is recorded as “D (D is inhibition of 0% to 10%)”.

With `O=S(=O)(Nc1nnc[nH]1)c1ccc(-c2ccccc2)cc1` [Compound A-13, N-(4H-1,2,4-triazol-3-yl)-[1,1′-biphenyl]-4-sulfonamide], the Inhibition entry is “D (D is inhibition of 0% to 10%)”.

For the compound `CCCc1ccc(S(=O)(=O)Nc2c(F)cc(F)cc2Br)cc1` [Compound A-51, N-(2-bromo-4,6-difluorophenyl)-4-propylbenzenesulfonamide], the Inhibition result was “D (D is inhibition of 0% to 10%)”.

Turning to `CCCc1ccc(S(=O)(=O)Nc2cccc(S(N)(=O)=O)c2)cc1` [Compound A-72, 4-propyl-N-(3-sulfamoylphenyl)benzene-sulfonamide], the Inhibition result is listed as “C (C is inhibition from 10% to 20%)”.

In the case of `Cc1cccc(NS(=O)(=O)c2ccc(C(=O)NCC(F)(F)F)cc2)c1` [Compound A-66, 4-(N-(m-tolyl)sulfamoyl)-N-(2,2,2-trifluoroethyl)benzamide], the Inhibition entry is given as “C (C is inhibition from 10% to 20%)”.

For the compound `CCCc1ccc(S(=O)(=O)Nc2ccc(S(=O)(=O)Nc3nccs3)cc2)cc1` [Compound A-85, 4-propyl-N-(4-(N-(thiazol-2-yl)sulfamoyl)phenyl)benzene-sulfonamide], the Inhibition entry is listed as “D (D is inhibition of 0% to 10%)”.

For `COC(=O)c1ccc(S(=O)(=O)Nc2cccc(C)c2)cc1` [Compound A-12, methyl 4-(N-(m-tolyl)sulfamoyl)benzoate], the Inhibition result is reported as “C (C is inhibition from 10% to 20%)”.

Turning to `CCCc1ccc(S(=O)(=O)Nc2ccc(Cl)c(NC(C)=O)c2)cc1` [Compound A-119, N-(2-chloro-5-((4-propylphenyl)sulfonamido)phenyl)acetamide], the Inhibition result was “D (D is inhibition of 0% to 10%)”.

In the case of `CCCc1ccc(S(=O)(=O)Nc2ccc(C)cc2Cl)cc1` [Compound A-82, N-(2-chloro-4-methylphenyl)-4-propylbenzenesulfonamide], the Inhibition result is “C (C is inhibition from 10% to 20%)”.
